Tested on: MV-4-11 cells
Assay: Gene expression microarray analysis (Affymetrix PrimeView) and GSEA
Assay type: cell-based, human
Design: RFU PODN (11730768_x_at) / Fold change /veh PODN (11730768_x_at) / RFU LINC00158 (11744669_a_at) / Fold change /veh LINC00158 (11744669_a_at) / RFU DUSP10 (11751237_a_at) / Fold change /veh DUSP10 (11751237_a_at) / RFU ID3 (11757404_x_at) / Fold change /veh ID3 (11757404_x_at) / RFU PLEKHG5 (11737974_s_at) / Fold change /veh PLEKHG5 (11737974_s_at) / RFU LRRC4B (11730491_at) / Fold change /veh LRRC4B (11730491_at) / RFU GIMAP4 (11747438_a_at) / Fold change /veh GIMAP4 (11747438_a_at) / RFU KRT8 (11758183_x_at) / Fold change /veh KRT8 (11758183_x_at) / RFU CNN1 (11734310_a_at) / Fold change /veh CNN1 (11734310_a_at) / RFU VPS37D (11726825_at) / Fold change /veh VPS37D (11726825_at) / RFU C10orf10 (11716522_x_at) / Fold change /veh C10orf10 (11716522_x_at) / RFU KIR2DL2 /// KIR2DL4 /// KIR2DL5A /// KIR2DL5B /// KIR2DS1 /// KIR2DS2 /// KIR2DS3 /// KIR2DS4 /// KIR3DL3 /// KIR3DL3 /// KIR3DS1 (11738374_at) / Fold change /veh KIR2DL2 /// KIR2DL4 /// KIR2DL5A /// KIR2DL5B /// KIR2DS1 /// KIR2DS2 /// KIR2DS3 /// KIR2DS4 /// KIR3DL3 /// KIR3DL3 /// KIR3DS1 (11738374_at) / RFU C1QL1 (11718748_at) / Fold change /veh C1QL1 (11718748_at) / RFU TMPRSS4 (11747572_a_at) / Fold change /veh TMPRSS4 (11747572_a_at) / RFU HAMP (11756126_x_at) / Fold change /veh HAMP (11756126_x_at) / RFU RNFT2 (11725882_a_at) / Fold change /veh RNFT2 (11725882_a_at) / RFU NR4A2 (11747474_a_at) / Fold change /veh NR4A2 (11747474_a_at) / RFU ABCC12 (11746883_a_at) / Fold change /veh ABCC12 (11746883_a_at) / RFU TMEM136 (11760407_x_at) / Fold change /veh TMEM136 (11760407_x_at) / RFU CLDN22 /// WWC2 (11732394_at) / Fold change /veh CLDN22 /// WWC2 (11732394_at) / RFU HLA-DPB1 (11760878_x_at) / Fold change /veh HLA-DPB1 (11760878_x_at) / RFU SPINT1 (11716480_a_at) / Fold change /veh SPINT1 (11716480_a_at) / RFU GAP43 (11754022_s_at) / Fold change /veh GAP43 (11754022_s_at) / RFU A4GNT (11735810_at) / Fold change /veh A4GNT (11735810_at) / RFU PRB3 (11715151_x_at) / Fold change /veh PRB3 (11715151_x_at) / RFU TUBB4B (11761932_at) / Fold change /veh TUBB4B (11761932_at) / RFU CAPN14 (11732068_a_at) / Fold change /veh CAPN14 (11732068_a_at) / RFU TMCC2 (11721928_a_at) / Fold change /veh TMCC2 (11721928_a_at) / RFU IRGQ (11745062_a_at) / Fold change /veh IRGQ (11745062_a_at) / RFU FAM174B (11720279_a_at) / Fold change /veh FAM174B (11720279_a_at) / RFU TMPRSS4 (11748680_a_at) / Fold change /veh TMPRSS4 (11748680_a_at) / RFU FAM212B (11763350_a_at) / Fold change /veh FAM212B (11763350_a_at) / RFU PLEKHG5 (11743358_a_at) / Fold change /veh PLEKHG5 (11743358_a_at) / RFU ZSCAN30 (11745921_a_at) / Fold change /veh ZSCAN30 (11745921_a_at) / RFU CMKLR1 (11741424_a_at) / Fold change /veh CMKLR1 (11741424_a_at) / RFU LOC101060620 /// MAPK8IP1 (11723275_at) / Fold change /veh LOC101060620 /// MAPK8IP1 (11723275_at) / RFU SPTSSB (11747773_x_at) / Fold change /veh SPTSSB (11747773_x_at) / RFU PRSS12 (11739890_at) / Fold change /veh PRSS12 (11739890_at) / RFU BIN1 (11741810_x_at) / Fold change /veh BIN1 (11741810_x_at) / RFU WNT11 (11732464_a_at) / Fold change /veh WNT11 (11732464_a_at) / RFU C10orf10 (11716521_a_at) / Fold change /veh C10orf10 (11716521_a_at) / RFU C5orf56 (11738089_at) / Fold change /veh C5orf56 (11738089_at) / RFU CYB561 (11721691_x_at) / Fold change /veh CYB561 (11721691_x_at) / RFU ANKRD19P (11752326_a_at) / Fold change /veh ANKRD19P (11752326_a_at) / RFU OR2T12 /// OR2T33 /// OR2T8 (11738714_s_at) / Fold change /veh OR2T12 /// OR2T33 /// OR2T8 (11738714_s_at) / RFU VCAN (11748164_a_at) / Fold change /veh VCAN (11748164_a_at) / RFU JSRP1 (11732532_at) / Fold change /veh JSRP1 (11732532_at) / RFU KRTAP10-11 (11738290_x_at) / Fold change /veh KRTAP10-11 (11738290_x_at) / RFU MYO3A (11730013_a_at) / Fold change /veh MYO3A (11730013_a_at) / RFU EBF3 (11725865_a_at) / Fold change /veh EBF3 (11725865_a_at) / RFU CAMK2N1 (11719241_x_at) / Fold change /veh CAMK2N1 (11719241_x_at) / RFU C5orf56 (11738088_a_at) / Fold change /veh C5orf56 (11738088_a_at) / RFU OLFML3 (11715873_a_at) / Fold change /veh OLFML3 (11715873_a_at) / RFU LOC100653217 /// NTM (11731650_a_at) / Fold change /veh LOC100653217 /// NTM (11731650_a_at) / RFU MAPK11 (11762145_a_at) / Fold change /veh MAPK11 (11762145_a_at) / RFU FIZ1 (11724087_x_at) / Fold change /veh FIZ1 (11724087_x_at) / RFU OASL (11726364_x_at) / Fold change /veh OASL (11726364_x_at) / RFU SOX15 (11748057_x_at) / Fold change /veh SOX15 (11748057_x_at) / RFU CD79A (11719716_a_at) / Fold change /veh CD79A (11719716_a_at) / RFU HIST1H1D (11736915_at) / Fold change /veh HIST1H1D (11736915_at) / RFU CASKIN2 (11723855_a_at) / Fold change /veh CASKIN2 (11723855_a_at) / RFU LOC730098 (11760151_x_at) / Fold change /veh LOC730098 (11760151_x_at) / RFU OR4N2 (11742367_at) / Fold change /veh OR4N2 (11742367_at) / RFU PRRT2 (11749266_a_at) / Fold change /veh PRRT2 (11749266_a_at) / RFU SNX32 (11753110_a_at) / Fold change /veh SNX32 (11753110_a_at) / RFU CDHR5 (11726645_a_at) / Fold change /veh CDHR5 (11726645_a_at) / RFU RCAN1 (11760418_a_at) / Fold change /veh RCAN1 (11760418_a_at) / RFU FAM167A (11723789_a_at) / Fold change /veh FAM167A (11723789_a_at) / RFU FAM26E (11764081_at) / Fold change /veh FAM26E (11764081_at) / RFU ISYNA1 (11749810_s_at) / Fold change /veh ISYNA1 (11749810_s_at) / RFU ACY1 (11761880_at) / Fold change /veh ACY1 (11761880_at) / RFU 11764098_at / Fold change /veh 11764098_at / RFU SAMD14 (11745864_x_at) / Fold change /veh SAMD14 (11745864_x_at) / RFU NPB (11741838_a_at) / Fold change /veh NPB (11741838_a_at) / RFU TMPRSS6 (11731388_a_at) / Fold change /veh TMPRSS6 (11731388_a_at) / RFU KRTAP10-2 (11738614_at) / Fold change /veh KRTAP10-2 (11738614_at) / RFU ARHGAP8 /// PRR5-ARHGAP8 (11727945_x_at) / Fold change /veh ARHGAP8 /// PRR5-ARHGAP8 (11727945_x_at) / RFU KRTAP5-7 /// NADSYN1 (11734609_at) / Fold change /veh KRTAP5-7 /// NADSYN1 (11734609_at) / RFU RASL12 (11751679_a_at) / Fold change /veh RASL12 (11751679_a_at) / RFU CDKN2B (11736163_a_at) / Fold change /veh CDKN2B (11736163_a_at) / RFU PRF1 (11729649_at) / Fold change /veh PRF1 (11729649_at) / RFU, ZNF638 /// ZNF638-IT1 / Fold change vs veh, ZNF638 /// ZNF638-IT1 / RFU, PANK3 / Fold change vs veh, PANK3 / RFU, SH3YL1 / Fold change vs veh, SH3YL1 / RFU, ZEB2 / Fold change vs veh, ZEB2 / RFU, NRIP1 / Fold change vs veh, NRIP1 / RFU, PTTG1IP / Fold change vs veh, PTTG1IP / RFU, CAPN2 / Fold change vs veh, CAPN2 / RFU, MED14 / Fold change vs veh, MED14 / RFU, SNORA58 / Fold change vs veh, SNORA58 / RFU, C1orf63 / Fold change vs veh, C1orf63 / RFU, LRRFIP1 / Fold change vs veh, LRRFIP1 / RFU, NDUFAF7 / Fold change vs veh, NDUFAF7 / RFU, SLC12A2 / Fold change vs veh, SLC12A2 / RFU, IBTK / Fold change vs veh, IBTK / RFU, ESF1 / Fold change vs veh, ESF1 / Fold change vs veh, TMEM50B / RFU, TAOK1 / Fold change vs veh, TAOK1 / RFU, ACBD3 / Fold change vs veh, ACBD3 / RFU, TMA16 / Fold change vs veh, TMA16 / RFU, RWDD3 / Fold change vs veh, RWDD3 / RFU, BCAT1 / Fold change vs veh, BCAT1 / RFU, EDEM3 / Fold change vs veh, EDEM3 / RFU, TMEM33 / Fold change vs veh, TMEM33 / RFU, WDR75 / Fold change vs veh, WDR75 / RFU, AHCTF1 / Fold change vs veh, AHCTF1 / RFU, TFRC / Fold change vs veh, TFRC / RFU, ZDHHC17 / Fold change vs veh, ZDHHC17 / RFU, NOM1 / Fold change vs veh, NOM1 / RFU, ARL8B / Fold change vs veh, ARL8B / RFU, ZBTB11 / Fold change vs veh, ZBTB11 / RFU, TAMM41 / Fold change vs veh, TAMM41 / RFU, KIAA1704 /// LOC100996395 / Fold change vs veh, KIAA1704 /// LOC100996395 / RFU, ING1 / Fold change vs veh, ING1 / RFU, TRMT61B / Fold change vs veh, TRMT61B / RFU, FUBP3 / Fold change vs veh, FUBP3 / RFU, TP53 / Fold change vs veh, TP53 / RFU, TNKS2 / Fold change vs veh, TNKS2 / RFU, ZFP14 / Fold change vs veh, ZFP14 / RFU, ACTR2 / Fold change vs veh, ACTR2 / RFU, PPP3R1 / Fold change vs veh, PPP3R1 / RFU, PIK3R1 / Fold change vs veh, PIK3R1 / RFU, HNRNPA1 / Fold change vs veh, HNRNPA1 / RFU, RNF170 / Fold change vs veh, RNF170 / RFU, ZNF28 / Fold change vs veh, ZNF28 / RFU, RNGTT / Fold change vs veh, RNGTT / RFU, OGT / Fold change vs veh, OGT / RFU, BRD1 / Fold change vs veh, BRD1 / RFU, MARS / Fold change vs veh, MARS / RFU, ZNF655 / Fold change vs veh, ZNF655 / RFU, FAHD1 / Fold change vs veh, FAHD1 / RFU, BDP1 / Fold change vs veh, BDP1 / RFU, LRRCC1 / Fold change vs veh, LRRCC1 / RFU, ARID1A / Fold change vs veh, ARID1A / RFU, ZNF146 / Fold change vs veh, ZNF146 / RFU, ZNF330 / Fold change vs veh, ZNF330 / RFU, GPN3 / Fold change vs veh, GPN3 / RFU, C9orf123 / Fold change vs veh, C9orf123 / RFU, N4BP2L2 / Fold change vs veh, N4BP2L2 / RFU, ARFIP1 / Fold change vs veh, ARFIP1 / RFU, FAM179B / Fold change vs veh, FAM179B / RFU, BCL10 / Fold change vs veh, BCL10 / RFU, UHRF1BP1L / Fold change vs veh, UHRF1BP1L / RFU, BET1 / Fold change vs veh, BET1 / RFU, CNOT2 / Fold change vs veh, CNOT2 / RFU, ZNF268 / Fold change vs veh, ZNF268 / Fold change vs veh, ZNF507 / RFU, DGCR2 / Fold change vs veh, DGCR2 / RFU, WDSUB1 / Fold change vs veh, WDSUB1 / Fold change vs veh, HSP90B1 /// MIR3652 / RFU, ADSS / Fold change vs veh, ADSS / RFU, GK / Fold change vs veh, GK / RFU, ZNF148 / Fold change vs veh, ZNF148 / RFU, TAF9 / Fold change vs veh, TAF9 / RFU, SLC1A5 / Fold change vs veh, SLC1A5 / RFU, SLMO2 / Fold change vs veh, SLMO2 / RFU, ABCC4 / Fold change vs veh, ABCC4 / RFU, LOC101060439 /// RAP1B / Fold change vs veh, LOC101060439 /// RAP1B / RFU, RFX7 / Fold change vs veh, RFX7 / RFU, GTPBP10 / Fold change vs veh, GTPBP10 / RFU, CNEP1R1 / Fold change vs veh, CNEP1R1 / RFU, BIVM-ERCC5 /// ERCC5 / Fold change vs veh, BIVM-ERCC5 /// ERCC5 / RFU, ILF3 / Fold change vs veh, ILF3 / RFU 11762660_at / Fold change /veh 11762660_at / RFU VCAN (11757783_s_at) / Fold change /veh VCAN (11757783_s_at) / RFU DDX43 (11728927_at) / Fold change /veh DDX43 (11728927_at) / RFU KRT8 (11758188_x_at) / Fold change /veh KRT8 (11758188_x_at) / RFU NKD1 (11759106_at) / Fold change /veh NKD1 (11759106_at) / RFU SRD5A1 (11742802_a_at) / Fold change /veh SRD5A1 (11742802_a_at) / RFU TPSAB1 /// TPSB2 (11721975_s_at) / Fold change /veh TPSAB1 /// TPSB2 (11721975_s_at) / RFU GSTM3 (11746129_a_at) / Fold change /veh GSTM3 (11746129_a_at) / RFU IL23R (11737362_x_at) / Fold change /veh IL23R (11737362_x_at) / RFU TMEM51 (11727254_a_at) / Fold change /veh TMEM51 (11727254_a_at) / RFU PIWIL2 (11732686_x_at) / Fold change /veh PIWIL2 (11732686_x_at) / RFU ORM1 (11744905_x_at) / Fold change /veh ORM1 (11744905_x_at) / RFU CCDC152 (11743942_at) / Fold change /veh CCDC152 (11743942_at) / RFU ECM1 (11717891_a_at) / Fold change /veh ECM1 (11717891_a_at) / RFU IL23R (11748794_a_at) / Fold change /veh IL23R (11748794_a_at) / RFU TNFAIP8L3 (11732012_x_at) / Fold change /veh TNFAIP8L3 (11732012_x_at) / RFU MBOAT4 (11741988_at) / Fold change /veh MBOAT4 (11741988_at) / RFU 11764193_at / Fold change /veh 11764193_at / RFU TMEM53 (11763286_at) / Fold change /veh TMEM53 (11763286_at) / RFU MAGEB2 (11727129_at) / Fold change /veh MAGEB2 (11727129_at) / RFU TMEM200A (11744735_a_at) / Fold change /veh TMEM200A (11744735_a_at) / RFU CCDC152 (11751479_a_at) / Fold change /veh CCDC152 (11751479_a_at) / RFU FAM211A (11726209_a_at) / Fold change /veh FAM211A (11726209_a_at) / RFU RGS16 (11746705_a_at) / Fold change /veh RGS16 (11746705_a_at) / RFU VCAN (11755009_s_at) / Fold change /veh VCAN (11755009_s_at) / RFU RHOB (11743442_s_at) / Fold change /veh RHOB (11743442_s_at) / RFU RGS16 (11720943_a_at) / Fold change /veh RGS16 (11720943_a_at) / RFU RGS16 (11720944_at) / Fold change /veh RGS16 (11720944_at) / RFU, VPS4B / Fold change vs veh, VPS4B / RFU, CREB1 / Fold change vs veh, CREB1 / RFU, DNAJC13 / Fold change vs veh, DNAJC13 / RFU, GNAQ / Fold change vs veh, GNAQ / RFU, CDK5R1 / Fold change vs veh, CDK5R1 / RFU, ZRANB3 / Fold change vs veh, ZRANB3 / RFU, CUL4A / Fold change vs veh, CUL4A / RFU, CCNY / Fold change vs veh, CCNY / RFU, UFL1 / Fold change vs veh, UFL1 / RFU, COG3 / Fold change vs veh, COG3 / RFU, DIAPH2 / Fold change vs veh, DIAPH2 / RFU, SKA2 / Fold change vs veh, SKA2 / RFU, AFF3 / Fold change vs veh, AFF3 / RFU, LMF1 / Fold change vs veh, LMF1 / RFU, IPO11 / Fold change vs veh, IPO11 / RFU, DFFB / Fold change vs veh, DFFB / RFU, FOXP1 / Fold change vs veh, FOXP1 / RFU, CARD8 / Fold change vs veh, CARD8 / RFU, STRN3 / Fold change vs veh, STRN3 / RFU, ADK / Fold change vs veh, ADK / RFU, RASSF2 / Fold change vs veh, RASSF2 / RFU, WIPF1 / Fold change vs veh, WIPF1 / RFU, LARP1B / Fold change vs veh, LARP1B / RFU, RASA1 / Fold change vs veh, RASA1 / RFU, RB1 / Fold change vs veh, RB1 / RFU, PPFIA1 / Fold change vs veh, PPFIA1 / RFU, MAT2A / Fold change vs veh, MAT2A / RFU, CCT5 / Fold change vs veh, CCT5 / RFU, WDR92 / Fold change vs veh, WDR92 / RFU, CUX1 / Fold change vs veh, CUX1 / RFU, TTC7A / Fold change vs veh, TTC7A / RFU, TMEM135 / Fold change vs veh, TMEM135 / RFU, DEPTOR / Fold change vs veh, DEPTOR / RFU, CPM / Fold change vs veh, CPM / RFU, DNAJB6 / Fold change vs veh, DNAJB6 / RFU, CACNA2D3 / Fold change vs veh, CACNA2D3 / RFU, DTX4 / Fold change vs veh, DTX4 / RFU, TFCP2 / Fold change vs veh, TFCP2 / RFU, GMCL1 /// GMCL1P1 / Fold change vs veh, GMCL1 /// GMCL1P1 / RFU, AEBP2 / Fold change vs veh, AEBP2 / RFU, SNHG1 /// SNORD22 /// SNORD25 /// SNORD26 /// SNORD27 /// SNORD28 /// SNORD29 /// SNORD31 / Fold change vs veh, SNHG1 /// SNORD22 /// SNORD25 /// SNORD26 /// SNORD27 /// SNORD28 /// SNORD29 /// SNORD31 / Fold change (Aza/veh), C12orf56 (ProbeSet 11735607_a_at) / Fold change (ACY-1035/veh), C12orf56 (ProbeSet 11735607_a_at) / Fold change (Aza/veh), FGFR1OP (ProbeSet 11751329_s_at) / Fold change (ACY-1035/veh), FGFR1OP (ProbeSet 11751329_s_at) / Fold change (Aza/veh), VPS36 (ProbeSet 11739960_a_at) / Fold change (ACY-1035/veh), VPS36 (ProbeSet 11739960_a_at) / RFU SYPL1 (11715823_x_at) / Fold change /veh SYPL1 (11715823_x_at) / RFU IGFBP7 (11715501_s_at) / Fold change /veh IGFBP7 (11715501_s_at) / RFU REEP3 (11722064_at) / Fold change /veh REEP3 (11722064_at) / RFU IGLL1 (11728026_x_at) / Fold change /veh IGLL1 (11728026_x_at): dose or concentration left out as unconfirmed
Conditions: MV-4-11 cells, 48 hours

In the case of Nc1ccc(-c2cccs2)cc1NC(=O)c1ccc2c(c1)cc(C1CC1)n2CCN1CCOCC1 [ACY-1035], the “RFU C10orf10 (11716521_a_at)” value is reported as 34.07 RFU.

From paper PMC5218480 (PLoS ONE, 2017)
